Test results taken from ChEMBL document CHEMBL1139685, “Antimalarial activity of N-alkyl amine, carboxamide, sulfonamide, and urea derivatives of a dispiro-1,2,4-trioxolane piperidine” (Bioorg Med Chem Lett, 2006).
In brackets after ≈: the same amount, converted by molar mass.

What was measured:
Mus musculus [1] = experiment: Survival of MORO mice (Mus musculus) infected with Plasmodium berghei at 10 mg/kg, subcutaneously after 30 day post-infection; type: functional; settings: route subcutaneous
Plasmodium falciparum [2] = experiment: Antimalarial activity against Plasmodium falciparum K1; type: functional, organism-based
Mus musculus [3] = experiment: Survival of MORO mice (Mus musculus) infected with Plasmodium berghei at 10 mg/kg, perorally after 30 day post-infection; type: functional; settings: route oral
Plasmodium falciparum [4] = experiment: Antimalarial activity against Plasmodium falciparum NF54; type: functional, organism-based
[5] = Lipophilicity, LogD at pH 7.4; type: physicochemical; settings: buffer
Plasmodium berghei [6] = experiment: Antimalarial activity in Plasmodium berghei infected MORO mice (Mus musculus) at 10 mg/kg peroral dose; type: functional; settings: route oral
Plasmodium berghei [7] = experiment: Antimalarial activity in Plasmodium berghei infected MORO mice (Mus musculus) at 10 mg/kg subcutaneous dose; type: functional
[8] = Partition coefficient, logP of the compound; type: physicochemical; settings: octanol/water

| Compound | Activity (Mus musculus [1]) [days] | IC50 (Plasmodium falciparum [2]) [ng/mL] | Activity (Mus musculus [3]) [days] | IC50 (Plasmodium falciparum [4]) [ng/mL] | logD [5] | Activity (Plasmodium berghei [6]) [%] | Activity (Plasmodium berghei [7]) [%] | logP [8] |
| --- | --- | --- | --- | --- | --- | --- | --- | --- |
| O=C(N1CCCC1)N1CCC2(CC1)OOC1(O2)C2CC3CC(C2)CC1C3 (centres undefined) | 9.7 | 3.9 (≈ 10.8 nM) | 7.3 | 6.7 (≈ 18.5 nM) | – | – | – | – |
| c1ccc(CN2CCC3(CC2)OOC2(O3)C3CC4CC(C3)CC2C4)cc1 (centres undefined) | 10 | 2.5 (≈ 7.03 nM) | 6 | 2.6 (≈ 7.31 nM) | 3.5 | – | – | – |
| c1cc(CN2CCC3(CC2)OOC2(O3)C3CC4CC(C3)CC2C4)ccn1 (centres undefined) | 11 | 0.4 (≈ 1.12 nM) | 6.3 | 0.67 (≈ 1.88 nM) | 2.7 | – | – | – |
| CCS(=O)(=O)N1CCC2(CC1)OOC1(O2)C2CC3CC(C2)CC1C3 (centres undefined) | 9.3 | 0.38 (≈ 1.06 nM) | 7 | 0.81 (≈ 2.27 nM) | – | 85 | 99.94 | – |
| C1CC2(CCN1)OOC1(O2)C2CC3CC(C2)CC1C3.Cl (centres undefined) | 7.7 | 0.15 | 6.3 | 0.34 | 0.25 | 59 | 84 | – |
| COCC(=O)N1CC[C@]2(CC1)OO[C@]1(O2)C2CC3CC(C2)CC1C3 | 7.3 | 0.95 (≈ 2.82 nM) | 7.3 | 0.2 (≈ 0.593 nM) | – | – | – | – |
| CC(=O)N1CCC2(CC1)OOC1(O2)C2CC3CC(C2)CC1C3 (centres undefined) | 7.3 | 0.82 (≈ 2.67 nM) | 6.7 | 0.93 (≈ 3.03 nM) | – | 81 | 85 | 3.8 |
| CN1CCN(C(=O)N2CCC3(CC2)OOC2(O3)C3CC4CC(C3)CC2C4)CC1 (centres undefined) | 8.3 | 0.2 (≈ 0.511 nM) | 7.3 | 0.22 (≈ 0.562 nM) | 2.6 | – | – | – |
| NC(=O)N1CCC2(CC1)OOC1(O2)C2CC3CC(C2)CC1C3 (centres undefined) | 8.7 | – | 8.3 | – | – | – | – | – |
| CCS(=O)(=O)CCN1CCC2(CC1)OOC1(O2)C2CC3CC(C2)CC1C3 (centres undefined) | 8 | 1 (≈ 2.59 nM) | 7 | 2.9 (≈ 7.52 nM) | 2.3 | – | – | – |
| O=C(c1ccccc1)N1CCC2(CC1)OOC1(O2)C2CC3CC(C2)CC1C3 (centres undefined) | 8.7 | 0.35 (≈ 0.947 nM) | 7 | 0.58 (≈ 1.57 nM) | – | 93 | 99.9 | 5.6 |
| CS(=O)(=O)N1CCC2(CC1)OOC1(O2)C2CC3CC(C2)CC1C3 (centres undefined) | 10.3 | 0.59 (≈ 1.72 nM) | 6.7 | 0.64 (≈ 1.86 nM) | – | 93 | 99.97 | – |
| O=C(c1ccncc1)N1CCC2(CC1)OOC1(O2)C2CC3CC(C2)CC1C3 (centres undefined) | 7 | – | 6.7 | – | – | – | – | – |
| CC(C)(C)NC(=O)N1CCC2(CC1)OOC1(O2)C2CC3CC(C2)CC1C3 (centres undefined) | 9.7 | 0.98 (≈ 2.69 nM) | 6.7 | 1.8 (≈ 4.94 nM) | – | – | – | – |
| C[C@H]1[C@H](OC(=O)CCC(=O)O)O[C@@H]2O[C@@]3(C)CC[C@H]4[C@H](C)CC[C@@H]1[C@@]24OO3 [ARTESUNATE] | 6.8 | – | 6.8 | – | – | 65 | 65 | – |
| CC(C)(C)CC(=O)N1CCC2(CC1)OOC1(O2)C2CC3CC(C2)CC1C3 (centres undefined) | 8.3 | – | 7.7 | – | – | – | – | – |
| CC(=O)Nc1ccc(S(=O)(=O)N2CCC3(CC2)OOC2(O3)C3CC4CC(C3)CC2C4)cc1 (centres undefined) | 12 | 1.4 (≈ 3.03 nM) | 6.3 | 0.5 (≈ 1.08 nM) | – | – | – | – |
| O=C(Nc1ccc(Cl)cc1)N1CCC2(CC1)OOC1(O2)C2CC3CC(C2)CC1C3 (centres undefined) | 13.7 | – | 6 | – | – | – | – | – |
| O=C(O)c1ccccc1C(=O)N1CCC2(CC1)OOC1(O2)C2CC3CC(C2)CC1C3 (centres undefined) | 6.3 | 22 (≈ 53.2 nM) | 6.3 | 13 (≈ 31.4 nM) | 1.2 | – | – | – |
| Cc1ccc(NC(=O)N2CCC3(CC2)OOC2(O3)C3CC4CC(C3)CC2C4)cc1 (centres undefined) | 14.3 | 2.3 (≈ 5.77 nM) | 6 | 2.3 (≈ 5.77 nM) | – | – | – | – |
| O=C(CO)N1CCC2(CC1)OOC1(O2)C2CC3CC(C2)CC1C3 (centres undefined) | 8 | 0.3 (≈ 0.928 nM) | 7 | 0.6 (≈ 1.86 nM) | – | 92 | 99.8 | 2.4 |
| O=C(N1CCOCC1)N1CCC2(CC1)OOC1(O2)C2CC3CC(C2)CC1C3 (centres undefined) | 9 | – | 8.7 | – | – | – | – | – |
| O=S(=O)(Cc1ccccc1)N1CCC2(CC1)OOC1(O2)C2CC3CC(C2)CC1C3 (centres undefined) | 8 | 1.7 (≈ 4.05 nM) | 5.7 | 4.1 (≈ 9.77 nM) | – | – | – | – |
| CC(C)N(C(=O)N1CCC2(CC1)OOC1(O2)C2CC3CC(C2)CC1C3)C(C)C (centres undefined) | 20.3 | – | 8.3 | 6.6 (≈ 16.8 nM) | – | – | – | – |
| CN(C)C(=O)N1CCC2(CC1)OOC1(O2)C2CC3CC(C2)CC1C3 (centres undefined) | 7 | 0.7 (≈ 2.08 nM) | 7 | – | – | – | – | – |
| C1CCC2(CC1)OOC1(O2)C2CC3CC(C2)CC1C3 (centres undefined) | 11.9 | 0.97 (≈ 3.67 nM) | 7.2 | 1.4 (≈ 5.3 nM) | – | 94 | >99.99 | 6.1 |
| O=S(=O)(c1ccccc1)N1CCC2(CC1)OOC1(O2)C2CC3CC(C2)CC1C3 (centres undefined) | 10.3 | 1.1 (≈ 2.71 nM) | 6 | 1.2 (≈ 2.96 nM) | – | 71 | >99.99 | 5.5 |
| O=C(O)CCC(=O)N1CCC2(CC1)OOC1(O2)C2CC3CC(C2)CC1C3 (centres undefined) | 6.3 | 7.1 (≈ 19.4 nM) | 6 | 7.2 (≈ 19.7 nM) | – | 39 | 52 | 2.3 |
| CO[C@H]1O[C@@H]2O[C@@]3(C)CC[C@H]4[C@H](C)CC[C@@H]([C@H]1C)[C@@]24OO3 | 9.1 | 0.74 (≈ 2.48 nM) | 7.9 | 1.2 (≈ 4.02 nM) | – | 98 | 99.78 | 3.3 |
| O=C(Nc1ccccc1)N1CCC2(CC1)OOC1(O2)C2CC3CC(C2)CC1C3 (centres undefined) | 19.7 | – | 7 | – | – | – | – | – |
